According to US10501421B1, “Substituted benzimidazoles as modulators of Ras signaling” (VANDERBILT UNIVERSITY, priority 2017, dated 2019):
Where a name gives a salt, the structure may show the parent alone. Read-outs that look alike come from different tables or passages of the source.

How the values were obtained:
[1] = molecular target: Ras GEF SOS (Son of Sevenless) (Homo sapiens, UniProt Q07889); assay: SOS-mediated nucleotide exchange on Ras (BODIPY-GDP fluorescence); type: biochemical; details: SOS-mediated exchange of BODIPY-GDP for GTP on Ras
Method in brief: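 Ras loaded with BODIPY-GDP was mixed in buffer with test compound, then GTP and SOS. Fluorescence change from labeled GDP/GTP exchange was followed over time, and rates came from single-exponential fits. EC50 came from a four-parameter fit of mean rate against compound concentration.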

[2] = molecular target: T1, Son of Sevenless (SOS) (Homo sapiens, UniProt Q07889); assay: Binding to SOS, fluorescence polarization anisotropy (FPA) probe displacement; details: displacement of FITC-conjugated probe (Example 285), affinity calculated from IC50
T1 sequence (Q07889 564-1049 limits assumed): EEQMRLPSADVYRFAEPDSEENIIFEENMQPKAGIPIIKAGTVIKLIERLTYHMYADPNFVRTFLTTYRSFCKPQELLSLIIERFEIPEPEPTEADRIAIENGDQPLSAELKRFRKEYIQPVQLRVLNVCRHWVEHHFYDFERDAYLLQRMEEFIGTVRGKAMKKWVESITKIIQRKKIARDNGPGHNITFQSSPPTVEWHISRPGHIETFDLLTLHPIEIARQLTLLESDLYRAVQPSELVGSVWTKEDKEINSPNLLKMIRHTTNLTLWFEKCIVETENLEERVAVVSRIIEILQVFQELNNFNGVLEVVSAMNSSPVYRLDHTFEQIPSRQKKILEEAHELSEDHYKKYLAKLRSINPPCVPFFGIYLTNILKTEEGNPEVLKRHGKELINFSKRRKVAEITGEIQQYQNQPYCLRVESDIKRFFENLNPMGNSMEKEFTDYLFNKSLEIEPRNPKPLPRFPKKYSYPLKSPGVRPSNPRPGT
Method in brief: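 A FITC-conjugated probe compound was incubated with SOS in buffer, and its displacement was tracked as a change in fluorescence anisotropy across a test-compound dose range. IC50 came from a four-parameter variable-slope fit, and binding affinity was calculated from it.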

[3] = system: H727 lung cancer cell lines (G12V K-Ras mutation); assay: Inhibition of cancer cell proliferation (CellTiter-Glo); type: cell-based; details: Homo sapiens, NCI-H727, 72 h, read-out: Cell proliferation activity (H727 cancer cell line proliferation IC50)
Description: Compounds of the present invention were measured for their ability to kill H727 lung cancer cell lines, which contain a G12V K-Ras mutation. Cell proliferation experiments were conducted in 96-well plates. Cells were plated at 1000 cells/well, incubated overnight, followed by treatment with a dose range of compound for 3 days at 37° C. Cell proliferation was assessed using a CellTiter-Glo assay (Promega) according to the manufacturer's protocol. Data were normalized to DMSO control. IC50 values were determined using a four-parameter dose-response (variable slope) equation. These assays are performed in a manner analogous to the assay disclosed in: Burns, M. C.; Sun, Q.; Daniels, R. N.; Camper, D. V.; Kennedy, J. P.; Phan, J.; Olejniczak, E. O.; Lee, T.; Waterson, A. G.; Rossanese, O. W.; Fesik, S. W. “Approach for targeting Ras with small molecules that activate SOS-mediated nucleotide exchange” Proc. Natl. Acad. Sci. 2014; 11(9): 3401-3406. PMCID: PMC3948241.

[4] = H727 cells, 3 days treatment, CellTiter-Glo

Ras GEF SOS (Son of Sevenless), sequence (P01112 1-166 partner limits assumed, one chain of several): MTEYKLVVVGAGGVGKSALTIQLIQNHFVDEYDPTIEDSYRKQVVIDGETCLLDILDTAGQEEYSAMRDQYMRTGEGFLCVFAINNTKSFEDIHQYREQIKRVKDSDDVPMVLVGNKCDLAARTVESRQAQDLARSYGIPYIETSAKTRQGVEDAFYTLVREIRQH

Row | Structure (SMILES) | EC50 [1] [µM] | Ki [2] [µM] | IC50 [3] [µM] | IC50 [3, 4] [µM]
1 | CCc1cc(Cn2c(N3CCNCC3)nc3cc(C)c(C)cc32)cc(Cl)c1F [Example 48, 1-(3-chloro-5-ethyl-4-fluorobenzyl)-5,6-dimethyl-2-(piperazin-1-yl)-1H-benzo[d]imidazole trifluoroacetate] | 1 to 5 | 1 to 5 | 1 to 5 | –
2 | Cc1cc(C2NCCc3c2[nH]c2ccccc32)c2nc(N3CCNCC3)n(Cc3cc(C)c(F)c(C)c3)c2c1 (stereo not drawn) [Example 139, 1-(1-(4-fluoro-3,5-dimethylbenzyl)-6-methyl-2-(piperazin-1-yl)-1H-benzo[d]imidazol-4-yl)-2,3,4,9-tetrahydro-1H-pyrido[3,4-b]indole trifluoroacetate] | 1 to 5 | 1 to 5 | 1 to 5 | –
3 | Cc1cc2c(nc(NCCN)n2Cc2ccc(F)c(Cl)c2)c(-c2ccccc2)c1C [Example 111, N^1-(1-(3-chloro-4-fluorobenzyl)-5,6-dimethyl-4-phenyl-1H-benzo[d]imidazol-2-yl)ethane-1,2-diamine trifluoroacetate] | 1 to 5 | 1 to 5 | 1 to 5 | –
4 | Fc1ccc(Cn2c(N3CCNCC3)nc3c(-c4ccnn4-c4ccc(Br)cc4)cc(Cl)cc32)cc1Cl [Example 170, 4-(1-(4-bromophenyl)-1H-pyrazol-5-yl)-6-chloro-1-(3-chloro-4-fluorobenzyl)-2-(piperazin-1-yl)-1H-benzo[d]imidazole trifluoroacetate] | 1 to 5 | < 0.5 | 5 to 20 | –
5 | Cc1cnc2nc(N3CCCC(N)C3)n(Cc3ccc(F)c(C)c3)c2c1 (stereo not drawn) [Example 240, 1-(1-(4-fluoro-3-methylbenzyl)-6-methyl-1H-imidazo[4,5-b]pyridin-2-yl)piperidin-3-amine] | 1 to 5 | > 5 | – | 5 to 20
6 | Cc1cc2c(nc(NCCN)n2Cc2ccc(F)c(Cl)c2)c(-c2ccccc2Cl)c1C [Example 113, N^1-(1-(3-chloro-4-fluorobenzyl)-4-(2-chlorophenyl)-5,6-dimethyl-1H-benzo[d]imidazol-2-yl)ethane-1,2-diamine trifluoroacetate] | 1 to 5 | < 0.5 | 1 to 5 | –
7 | Cc1cc(OC2CCNC2)c2nc(N3CCNCC3)n(Cc3cc(C)c(F)c(C)c3)c2c1 (stereo not drawn) [Example 317, 1-(4-fluoro-3,5-dimethylbenzyl)-6-methyl-2-(piperazin-1-yl)-4-(pyrrolidin-3-yloxy)-1H-benzo[d]imidazole] | < 1 | 0.5 to 1 | – | 5 to 20
8 | COc1ccccc1-c1cccc2c1nc(N1CCNCC1)n2Cc1ccc(F)c(Cl)c1 [Example 81, 1-(3-chloro-4-fluorobenzyl)-4-(2-methoxyphenyl)-2-(piperazin-1-yl)-1H-benzo[d]imidazole trifluoroacetate] | 1 to 5 | 0.5 to 1 | 5 to 20 | –
9 | Cc1cc2c(nc(N3CCNCC3)n2Cc2ccc(Cl)cc2)c(-c2ccccc2F)c1C [Example 107, 1-(4-chlorobenzyl)-4-(2-fluorophenyl)-5,6-dimethyl-2-(piperazin-1-yl)-1H-benzo[d]imidazole trifluoroacetate] | 1 to 5 | 1 to 5 | 5 to 20 | –
10 | CNCc1cc(Cl)cc2c1nc(N1CCNCC1)n2Cc1cc(C)c(F)c(C)c1 [Example 129, 1-(6-chloro-1-(4-fluoro-3,5-dimethylbenzyl)-2-(piperazin-1-yl)-1H-benzo[d]imidazol-4-yl)-N-methylmethanamine trifluoroacetate] | < 1 | < 0.5 | 1 to 5 | –
11 | CCc1cc(Cn2c(N3CCNCC3)nc3cc(C)c(C)cc32)cc(CC)c1F [Example 49, 1-(3,5-diethyl-4-fluorobenzyl)-5,6-dimethyl-2-(piperazin-1-yl)-1H-benzo[d]imidazole trifluoroacetate] | 1 to 5 | > 5 | 1 to 5 | –
12 | Cc1cc2c(nc(N3CCNCC3)n2Cc2ccc(F)c(Cl)c2)c(-c2ccc(CN)cc2)c1C [Example 108, (4-(1-(3-chloro-4-fluorobenzyl)-5,6-dimethyl-2-(piperazin-1-yl)-1H-benzo[d]imidazol-4-yl)phenyl)methanamine trifluoroacetate] | < 1 | 0.5 to 1 | 1 to 5 | –
13 | Cc1cc(CN2CCC(O)CC2)c2nc(N3CCNCC3)n(Cc3cc(C)c(F)c(C)c3)c2c1 [Example 126, 1-((1-(4-fluoro-3,5-dimethylbenzyl)-6-methyl-2-(piperazin-1-yl)-1H-benzo[d]imidazol-4-yl)methyl)piperidin-4-ol trifluoroacetate] | 1 to 5 | 1 to 5 | 1 to 5 | –
14 | CCC[C@H](N)c1cc(Cl)cc2c1nc(N1CCNCC1)n2Cc1cc(C)c(F)c(C)c1 [Example 164, (S)-1-(6-chloro-1-(4-fluoro-3,5-dimethylbenzyl)-2-(piperazin-1-yl)-1H-benzo[d]imidazol-4-yl)butan-1-amine trifluoroacetate] | 1 to 5 | < 0.5 | < 1 | –
15 | Cc1cc(Cn2c(N3CCNCC3)nc3c([C@@H](N)c4ccccc4)cc(Cl)cc32)cc(C)c1F [Example 159, (S)-(6-chloro-1-(4-fluoro-3,5-dimethylbenzyl)-2-(piperazin-1-yl)-1H-benzo[d]imidazol-4-yl)(phenyl)methanamine trifluoroacetate] | < 1 | < 0.5 | < 1 | –
16 | Cc1cc(-c2ccccc2F)c2nc(N3CCNCC3)n(Cc3ccc(F)c(Cl)c3)c2c1 [Example 119, 1-(3-chloro-4-fluorobenzyl)-4-(2-fluorophenyl)-6-methyl-2-(piperazin-1-yl)-1H-benzo[d]imidazole trifluoroacetate] | 1 to 5 | < 0.5 | > 20 | –
17 | CCc1cc(Cn2c(N3CCNCC3)nc3cc(C)c(C)cc32)ccc1F [Example 50, 1-(3-ethyl-4-fluorobenzyl)-5,6-dimethyl-2-(piperazin-1-yl)-1H-benzo[d]imidazole trifluoroacetate] | 1 to 5 | > 5 | 1 to 5 | –
18 | Cc1cc2c(nc(N3CCNCC3)n2Cc2ccc(F)c(Cl)c2)c(-c2ccccc2C(C)C)c1C [Example 109, 1-(3-chloro-4-fluorobenzyl)-4-(2-isopropylphenyl)-5,6-dimethyl-2-(piperazin-1-yl)-1H-benzo[d]imidazole] | 1 to 5 | 0.5 to 1 | – | 1 to 5
19 | Cc1cc(CN2CCCCC2)c2nc(N3CCNCC3)n(Cc3cc(C)c(F)c(C)c3)c2c1 [Example 125, 1-(4-fluoro-3,5-dimethylbenzyl)-6-methyl-2-(piperazin-1-yl)-4-(piperidin-1-ylmethyl)-1H-benzo[d]imidazole trifluoroacetate] | 1 to 5 | 1 to 5 | 1 to 5 | –
20 | Cc1cc(CN2CCCC2)c2nc(N3CCNCC3)n(Cc3cc(C)c(F)c(C)c3)c2c1 [Example 124, 1-(4-fluoro-3,5-dimethylbenzyl)-6-methyl-2-(piperazin-1-yl)-4-(pyrrolidin-1-ylmethyl)-1H-benzo[d]imidazole trifluoroacetate] | < 1 | 1 to 5 | 1 to 5 | –
21 | COc1ccc(-c2c(C)c(C)cc3c2nc(N2CCNCC2)n3Cc2ccc(F)c(Cl)c2)cc1OC [Example 110, 1-(3-chloro-4-fluorobenzyl)-4-(3,4-dimethoxyphenyl)-5,6-dimethyl-2-(piperazin-1-yl)-1H-benzo[d]imidazole] | 1 to 5 | 1 to 5 | – | 1 to 5
